{
  "source": "patent US6710090B2",
  "about": "“Inhibitory or blocking agents of molecular generating and/or inducing functions” (priority 1994, dated 2004)",
  "assay": "Comparison of 4,4-dimethyl-2-cyclohexen-1-one with Yoshixol on all parameters",
  "description": "In addition, higher dosage was needed to be obtained qualitatively an identical effect to the above-mentioned effect of Yoshixol. Then, the concentration of 4,4-dimethyl-2-cyclohexen-1-one was required about 30-100 times dosage of Yoshixol on the biological samples, and about 10-50 times dosage of Yoshixol on lower molecular substance and macromolecular substance of non-living samples.",
  "data": [
    {"smiles": "CC1(C)C=CC(=O)CC1", "note": "[4,4-dimethyl-2-cyclohexen-1-one]", "values": [
      {"measurement": "control, inhibit and/or block function generated by multi-dimensional structure", "setting": "all parameters demonstrated by Yoshixol", "result": "similarly to Yoshixol"},
      {"measurement": "concentration required for an effect identical to Yoshixol", "setting": "on the biological samples", "result": "30-100 times dosage of Yoshixol"}
    ]}
  ]
}
